# Source: patent US7332177B1, “Method and formulation for treating resistance to antihypertensives and related conditions” (Neurim Pharmaceuticals (1991) Ltd., priority 2000, dated 2008)
# Columns and labels:
# [1] = Experiment 1: morning blood pressure after 3 weeks of controlled-release melatonin in elderly insomnia patients; type: in vivo, human; conditions: hypertensive elderly subjects; administration in the evening
# Protocol: All patients, who had been insomniacs, were diagnosed according to DSM IV. They consisted of 86 men and 96 women, age 72±9 years. […] During the last week of the treatment period, BP was assessed at the morning and comparisons were made between placebo or melatonin treatments, and baseline.
# [2] = 2 mg/os daily at 18:00 h for 2 months; adult men; cited from earlier work
# rabbit aorta = conditions: high concentrations 10-1000 μM; in vitro; cited from earlier work
smiles,measurement,setting,value
COc1ccc2[nH]cc(CCNC(C)=O)c2c1 [melatonin],daytime systolic and diastolic blood pressure,[1],decreased
same,mean serum melatonin levels,[2],marked elevation
same,Vasorelaxing action,rabbit aorta,observed
